From PubChem BioAssay AID276 (DTP/NCI, 2004)
“And” between values parts separate entries of the source, which are not always exact repeats. Equal values may be shown once. Inconclusive results and toxic doses are left out. The calls were made as follows: active = survival T/C of 150% or more; inactive = T/C below 125% in these data.

Test system: B6C3F1 mice, Lewis lung carcinoma iv, survival T/C
Experiment: NCI In Vivo Anticancer Drug Screen. Data for tumor model Lewis Lung Carcinoma (intravenous) in B6C3F1 mice
Conditions: endpoint: median survival time, schedule: Q01DX009 (ip), higher = longer survival
Summary of the method: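 Mice carrying transplanted tumors received test compound; survival in the treated group was divided by that of the vehicle-treated control group to give the T/C value.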

[1] = dose: 12.5 mg/kg/injection, vehicle: saline with Tween-80
[2] = dose: 25.0 mg/kg/injection, vehicle: saline with Tween-80
[3] = dose: 50.0 mg/kg/injection, vehicle: saline with Tween-80
[4] = dose: 100.0 mg/kg/injection, vehicle: saline with Tween-80
[5] = dose: 200.0 mg/kg/injection, vehicle: saline with Tween-80
[6] = dose: 400.0 mg/kg/injection, vehicle: saline with Tween-80
[7] = dose: 12.5 mg/kg/injection, vehicle: saline
[8] = dose: 25.0 mg/kg/injection, vehicle: saline

Measured: T/C

COc1cccc2c1C(=N)c1c(O)c3c(c(O)c1C2=O)C[C@@](O)(C(C)=O)C[C@@H]3OC1CC(N)C(O)C(C)O1 (some centres not stated)
inactive: dose: 1.0 mg/kg/injection, vehicle: saline 103 % of control | dose: 2.0 mg/kg/injection, vehicle: saline 96 % of control | dose: 4.0 mg/kg/injection, vehicle: saline 105 % of control

CN(C)P(=O)(Oc1ccccc1)N(C)C
inactive: [1] 113 % of control | [2] 98 % of control | [3] 101 % of control | [4] 115 % of control | [5] 101 % of control | [6] 100 % of control

BrCCC1(CCBr)CCCCC1
inactive: dose: 50.0 mg/kg/injection, vehicle: water 104 % of control | dose: 100.0 mg/kg/injection, vehicle: water 103 % of control | dose: 200.0 mg/kg/injection, vehicle: water 98 % of control | dose: 400.0 mg/kg/injection, vehicle: water 96 % of control

CCCCOCN(COCCCC)C(C)Cc1ccccc1 (configuration not stated)
inactive: [1] 96 % of control | [2] 107 % of control | [3] 104 % of control | [4] 92 % of control | [5] 89 % of control

NCCCNCCSP(=O)(O)O
inactive: [1] 98 % of control | [2] 98 % of control | [3] 95 % of control | [4] 106 % of control | [5] 105 % of control

O=[N+]([O-])c1c(O)c(CNCCCO)cc(CNCCCO)c1O
inactive: dose: 6.25 mg/kg/injection, vehicle: saline 100 % of control | [7] 113 % of control | [8] 102 % of control

CCOC(=O)c1cn(C)c2c1C(O)=C(C(=O)OC)CC(=O)N2
inactive: [2] 97 % of control | [3] 104 % of control | [4] 113 % of control | [5] 99 % of control | [6] 105 % of control

Cc1cc(N2C(=O)CCSC2=S)ccc1Cl
inactive: dose: 12.5 mg/kg/injection, vehicle: Klucel (hydroxypropylcellulose) (HPC) 120 % of control | dose: 25.0 mg/kg/injection, vehicle: Klucel (hydroxypropylcellulose) (HPC) 97 % of control | dose: 50.0 mg/kg/injection, vehicle: Klucel (hydroxypropylcellulose) (HPC) 102 % of control | dose: 100.0 mg/kg/injection, vehicle: Klucel (hydroxypropylcellulose) (HPC) 111 % of control | dose: 200.0 mg/kg/injection, vehicle: Klucel (hydroxypropylcellulose) (HPC) 124 % of control

CC(C)C(N)C(=O)Nc1nncs1 (configuration not stated)
inactive: [7] 108 % of control | [8] 104 % of control | dose: 50.0 mg/kg/injection, vehicle: saline 114 % of control and 121 % of control | dose: 50.62 mg/kg/injection, vehicle: saline 103 % of control | dose: 50.62 mg/kg/injection, vehicle: suspension in saline 110 % of control | dose: 67.5 mg/kg/injection, vehicle: saline 103 % of control | dose: 67.5 mg/kg/injection, vehicle: suspension in saline 124 % of control | dose: 90.0 mg/kg/injection, vehicle: saline 100 % of control | dose: 120.0 mg/kg/injection, vehicle: saline 112 % of control | dose: 160.0 mg/kg/injection, vehicle: saline 117 % of control
active: dose: 100.0 mg/kg/injection, vehicle: saline 165 % of control and 245 % of control | dose: 120.0 mg/kg/injection, vehicle: suspension in saline 157 % of control

CCC(=O)Sc1ccccc1C(=O)Nc1ccc(Cl)cc1
inactive: [2] 94 % of control | [3] 100 % of control | [4] 107 % of control | [5] 89 % of control | [6] 105 % of control

Cc1c(O)ccc(=O)n1O
inactive: dose: 16.0 mg/kg/injection, vehicle: saline with Tween-80 101 % of control | dose: 32.0 mg/kg/injection, vehicle: saline with Tween-80 99 % of control | dose: 64.0 mg/kg/injection, vehicle: saline with Tween-80 103 % of control | dose: 128.0 mg/kg/injection, vehicle: saline with Tween-80 89 % of control
